# Reference: PubChem BioAssay (NCI)
#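 Protocol summary: plate cells (96-well), add compound at 5 concentrations, incubate 48 h, interpolate endpoints linearly. The concentration for full growth arrest is given as TGI.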
# How the values were obtained:
# Test in all cases: inhibition of tumour cell growth, NCI panel, 48 h
# 786-0 renal = tested on: 786-0 renal
# A498 renal = tested on: A498 renal
# A549 NSCLC = tested on: A549 NSCLC
# ACHN renal = tested on: ACHN renal
# BT-549 breast = tested on: BT-549 breast
# CAKI-1 renal = tested on: CAKI-1 renal
# CCRF-CEM leukemia = tested on: CCRF-CEM leukemia
# COLO 205 colon = tested on: COLO 205 colon
# DU-145 prostate = tested on: DU-145 prostate
# EKVX NSCLC = tested on: EKVX NSCLC
# HCC-2998 colon = tested on: HCC-2998 colon
# HCT-116 colon = tested on: HCT-116 colon
# HCT-15 colon = tested on: HCT-15 colon
# HL-60(TB) leukemia = tested on: HL-60(TB) leukemia
# HOP-62 NSCLC = tested on: HOP-62 NSCLC
# HOP-92 NSCLC = tested on: HOP-92 NSCLC
# HS 578T breast = tested on: HS 578T breast
# HT29 colon = tested on: HT29 colon
# IGROV1 ovarian = tested on: IGROV1 ovarian
# K-562 leukemia = tested on: K-562 leukemia
# KM12 colon = tested on: KM12 colon
# LOX IMVI melanoma = tested on: LOX IMVI melanoma
# MALME-3M melanoma = tested on: MALME-3M melanoma
# MCF7 breast = tested on: MCF7 breast
# MDA-MB-231 breast = tested on: MDA-MB-231 breast
# MDA-MB-435 = tested on: MDA-MB-435
# MDA-N = tested on: MDA-N
# MOLT-4 leukemia = tested on: MOLT-4 leukemia
# NCI-H226 lung = tested on: NCI-H226 lung
# NCI-H23 lung = tested on: NCI-H23 lung
# NCI-H460 lung = tested on: NCI-H460 lung
# NCI-H522 lung = tested on: NCI-H522 lung
# NCI/ADR-RES ovarian = tested on: NCI/ADR-RES ovarian
# OVCAR-3 ovarian = tested on: OVCAR-3 ovarian
# OVCAR-5 ovarian = tested on: OVCAR-5 ovarian
# OVCAR-8 ovarian = tested on: OVCAR-8 ovarian
# PC-3 prostate = tested on: PC-3 prostate
# RPMI-8226 leukemia = tested on: RPMI-8226 leukemia
# RXF 393 renal = tested on: RXF 393 renal
# SF-268 CNS = tested on: SF-268 CNS
# SF-295 CNS = tested on: SF-295 CNS
# SF-539 CNS = tested on: SF-539 CNS
# SK-MEL-28 melanoma = tested on: SK-MEL-28 melanoma
# SK-MEL-5 melanoma = tested on: SK-MEL-5 melanoma
# SN12C renal = tested on: SN12C renal
# SNB-19 CNS = tested on: SNB-19 CNS
# SNB-75 CNS = tested on: SNB-75 CNS
# SR leukemia = tested on: SR leukemia
# SW-620 colon = tested on: SW-620 colon
# TK-10 renal = tested on: TK-10 renal
# U251 CNS = tested on: U251 CNS
# UACC-257 melanoma = tested on: UACC-257 melanoma
# M14 melanoma = tested on: M14 melanoma
# OVCAR-4 ovarian = tested on: OVCAR-4 ovarian
# SK-MEL-2 melanoma = tested on: SK-MEL-2 melanoma
# SK-OV-3 ovarian = tested on: SK-OV-3 ovarian
# T-47D breast = tested on: T-47D breast
# UACC-62 melanoma = tested on: UACC-62 melanoma
# UO-31 renal = tested on: UO-31 renal
structure (smiles),measurement,setting,value
COCCN(C(C)=O)C1CCC2(SCCS2)c2[nH]c3ccccc3c21 (centres undefined),TGI,786-0 renal,> 100 µM
same,TGI,A498 renal,> 100 µM
same,TGI,A549 NSCLC,> 100 µM
same,TGI,ACHN renal,> 100 µM
same,TGI,BT-549 breast,> 100 µM
same,TGI,CAKI-1 renal,> 100 µM
same,TGI,CCRF-CEM leukemia,> 100 µM
same,TGI,COLO 205 colon,> 100 µM
same,TGI,DU-145 prostate,> 100 µM
same,TGI,EKVX NSCLC,> 100 µM
same,TGI,HCC-2998 colon,> 100 µM
same,TGI,HCT-116 colon,> 100 µM
same,TGI,HCT-15 colon,> 100 µM
same,TGI,HL-60(TB) leukemia,> 100 µM
same,TGI,HOP-62 NSCLC,> 100 µM
same,TGI,HOP-92 NSCLC,> 100 µM
same,TGI,HS 578T breast,> 100 µM
same,TGI,HT29 colon,> 100 µM
same,TGI,IGROV1 ovarian,> 100 µM
same,TGI,K-562 leukemia,> 100 µM
same,TGI,KM12 colon,> 100 µM
same,TGI,LOX IMVI melanoma,> 100 µM
same,TGI,MALME-3M melanoma,> 100 µM
same,TGI,MCF7 breast,> 100 µM
same,TGI,MDA-MB-231 breast,> 100 µM
same,TGI,MDA-MB-435,> 100 µM
same,TGI,MDA-N,> 100 µM
same,TGI,MOLT-4 leukemia,> 100 µM
same,TGI,NCI-H226 lung,> 100 µM
same,TGI,NCI-H23 lung,> 100 µM
same,TGI,NCI-H460 lung,> 100 µM
same,TGI,NCI-H522 lung,> 100 µM
same,TGI,NCI/ADR-RES ovarian,> 100 µM
same,TGI,OVCAR-3 ovarian,> 100 µM
same,TGI,OVCAR-5 ovarian,> 100 µM
same,TGI,OVCAR-8 ovarian,> 100 µM
same,TGI,PC-3 prostate,> 100 µM
same,TGI,RPMI-8226 leukemia,> 100 µM
same,TGI,RXF 393 renal,> 100 µM
same,TGI,SF-268 CNS,> 100 µM
same,TGI,SF-295 CNS,> 100 µM
same,TGI,SF-539 CNS,> 100 µM
same,TGI,SK-MEL-28 melanoma,> 100 µM
same,TGI,SK-MEL-5 melanoma,> 100 µM
same,TGI,SN12C renal,> 100 µM
same,TGI,SNB-19 CNS,> 100 µM
same,TGI,SNB-75 CNS,> 100 µM
same,TGI,SR leukemia,> 100 µM
same,TGI,SW-620 colon,> 100 µM
same,TGI,TK-10 renal,> 100 µM
same,TGI,U251 CNS,> 100 µM
same,TGI,UACC-257 melanoma,> 100 µM
CCOC(CN=C=S)OCC,TGI,786-0 renal,> 10 µM
same,TGI,A498 renal,> 10 µM
same,TGI,A549 NSCLC,> 10 µM
same,TGI,ACHN renal,> 10 µM
same,TGI,CAKI-1 renal,> 10 µM
same,TGI,CCRF-CEM leukemia,> 10 µM
same,TGI,COLO 205 colon,> 10 µM
same,TGI,DU-145 prostate,> 10 µM
same,TGI,EKVX NSCLC,> 10 µM
same,TGI,HCC-2998 colon,> 10 µM
same,TGI,HCT-116 colon,> 10 µM
same,TGI,HCT-15 colon,> 10 µM
same,TGI,HL-60(TB) leukemia,> 10 µM
same,TGI,HOP-62 NSCLC,> 10 µM
same,TGI,HOP-92 NSCLC,> 10 µM
same,TGI,HS 578T breast,> 10 µM
same,TGI,HT29 colon,> 10 µM
same,TGI,IGROV1 ovarian,> 10 µM
same,TGI,K-562 leukemia,> 10 µM
same,TGI,KM12 colon,> 10 µM
same,TGI,LOX IMVI melanoma,> 10 µM
same,TGI,M14 melanoma,> 10 µM
same,TGI,MALME-3M melanoma,> 10 µM
same,TGI,MCF7 breast,> 10 µM
same,TGI,MDA-MB-231 breast,> 10 µM
same,TGI,MDA-MB-435,> 10 µM
same,TGI,MDA-N,> 10 µM
same,TGI,MOLT-4 leukemia,> 10 µM
same,TGI,NCI-H226 lung,> 10 µM
same,TGI,NCI-H23 lung,> 10 µM
same,TGI,NCI-H460 lung,> 10 µM
same,TGI,NCI-H522 lung,> 10 µM
same,TGI,NCI/ADR-RES ovarian,> 10 µM
same,TGI,OVCAR-3 ovarian,> 10 µM
same,TGI,OVCAR-4 ovarian,> 10 µM
same,TGI,OVCAR-8 ovarian,> 10 µM
same,TGI,PC-3 prostate,> 10 µM
same,TGI,RPMI-8226 leukemia,> 10 µM
same,TGI,RXF 393 renal,> 10 µM
same,TGI,SF-268 CNS,> 10 µM
same,TGI,SF-295 CNS,> 10 µM
same,TGI,SF-539 CNS,> 10 µM
same,TGI,SK-MEL-2 melanoma,> 10 µM
same,TGI,SK-MEL-28 melanoma,> 10 µM
same,TGI,SK-MEL-5 melanoma,> 10 µM
same,TGI,SK-OV-3 ovarian,> 10 µM
same,TGI,SN12C renal,> 10 µM
same,TGI,SNB-19 CNS,> 10 µM
same,TGI,SNB-75 CNS,> 10 µM
same,TGI,SR leukemia,> 10 µM
same,TGI,SW-620 colon,> 10 µM
same,TGI,T-47D breast,> 10 µM
same,TGI,TK-10 renal,> 10 µM
same,TGI,U251 CNS,> 10 µM
same,TGI,UACC-257 melanoma,> 10 µM
same,TGI,UACC-62 melanoma,> 10 µM
same,TGI,UO-31 renal,> 10 µM
